Consider four compounds from patent US20100298214A1, “TREATMENT OF AUTOIMMUNE DISEASE” (MASSACHUSETTS INSTITUTE OF TECHNOLOGY, priority 2007, published 2010).

Experiment [1] deals with NOD mice. Nature of the experiment: Diabetes incidence monitored by urine glucose level. The format is in vivo, mouse. The text has this:
NOD mice were obtained from Taconic Farms. […] BALB/c mice were purchased from Jackson Laboratory. EA16NOD mice were obtained from Drs. Diane Mathis and Christopher Benoist. […] All mice were kept under specific pathogen free facilities.
To test whether continuous AMD3100 treatment can inhibit the development of diabetes, prediabetic NOD mice (15 weeks of age) were given AMD3100 daily for 14 weeks. PBS-treated NOD mice started to show evidence of diabetes at 16 weeks of age, and by 29 weeks of age, all mice developed diabetes (FIG. 8D).

The test system of experiment [2] is prediabetic NOD mice. As for the experimental part: (§1) NOD mice were obtained from Taconic Farms. Female NOD mice were used in all the studies and monitored for diabetes by checking urine glucose levels at least two times per week, starting around 12 weeks of age. Mice were considered diabetic when urinary glucose level reached 500 mg/dl, as measured with Diastix (Bayer Diagnostics). […] BALB/c mice were purchased from Jackson Laboratory. EA16NOD mice were obtained from Drs. Diane Mathis and Christopher Benoist. Cxcr4^fif Lck-Cre mice and littermate Cxcr4^−if Lck-Cre were on the mixed 129/C57BL/6 background and were generated by breeding Cxcr4^+if Lck-Cre mice. All mice were kept under specific pathogen free facilities. For AMD3100 treatment, prediabetic NOD mice were given AMD3100 (5 mg/kg) subcutaneously daily for the indicated lengths of time. For analysis of T cell distribution, mice were sacrificed at 2 hours after the last AMD3100 injection.
Single-cell suspensions were prepared from the spleen, lymph nodes (e.g., superficial cervical, brachial, axillary, inguinal, mesenteric, and pancreas-draining lymph nodes), and bone marrow (e.g., obtained by flushing two femurs and two tibias with cold RPMI 1640 medium containing 5% fetal calf serum [FCS]). All staining antibodies were purchased from BDbioscience, except anti-Foxp3, lineage markers (Lin), and c-Kit and Sea-1, which were from E-bioscience, Stem Cell Technologies, and Biolegend, respectively. Cells were stained in the presence of 2.5 μg/ml anti-FcR antibody in PBS containing 0.1% BSA and 0.1% NaN3 and analyzed on a FACScaliber or a LSR II or a FACSAria, collecting 10,000 to 1,000,000 live cells per sample. Analyses were carried out with Flowjo software. For analysis of LSK cells, 10% of total cells with low level of lineage marker expression were gated for further analysis of Sca-1 versus c-Kit expression profiles. Intracellular staining of Foxp3 and Ki67 was performed according to the manufacturer's instruction.
AMD3100 is a small molecule antagonist of CXCR4 (De Clercq, 2003, supra; incorporated herein by reference). […] Thus, prediabetic NOD mice were given AMD3100 (5 mg/kg) daily for 8 days, and the distribution and phenotype of T cells in their bone marrow were assayed.

For experiment [3], the system named is sublethally irradiated male NOD mice. Conditions: Aboumrad et al., 2007; cited from earlier work.
In experiment [4] the test system is prediabetic NOD mice. As to conditions: daily for 8 days (FIGS. 8A and 8B). As for the experimental part:
as §1

Experiment [5] concerns NOD mice. As to conditions: cited from earlier work.
Experiment [6] addresses T1, CXCR4 (Homo sapiens, UniProt P61073).
T1 construct: endogenous in cells; host or cells: human peripheral mononuclear cells (PBMCs)
As to conditions: induction of internalization after binding; Liu et al., 2004; cited from earlier work.

[7] abbreviates: treatment for 8 days (FIG. 10G).
Setting [8] is: treatment for 8 days (FIG. 10H).

T1 sequence (P61073 whole entry): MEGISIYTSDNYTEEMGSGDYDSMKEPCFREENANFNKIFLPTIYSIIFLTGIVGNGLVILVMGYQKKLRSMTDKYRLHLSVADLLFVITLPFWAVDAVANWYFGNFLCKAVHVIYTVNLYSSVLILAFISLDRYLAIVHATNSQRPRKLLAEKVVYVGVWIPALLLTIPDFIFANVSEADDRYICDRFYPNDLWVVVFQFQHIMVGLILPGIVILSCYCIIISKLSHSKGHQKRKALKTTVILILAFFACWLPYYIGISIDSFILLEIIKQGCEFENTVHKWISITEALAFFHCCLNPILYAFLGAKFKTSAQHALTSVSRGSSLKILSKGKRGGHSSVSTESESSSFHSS

As to `Cl.Cl.Cl.Cl.Cl.Cl.Cl.Cl.O.O.c1cc(CN2CCCNCCNCCCNCC2)ccc1CN1CCCNCCNCCCNCC1` [AMD3100, 1,1′-[1,4-phenylenebis(methylene)]-bis-1,4,8,11-tetraazacyclotetradecane octahydrochloride dihydrate], in experiment [1] (after three weeks of daily treatment), the “time after termination of treatment at which mice began to develop diabetes” value is on record as “two weeks”. Moreover, the “diabetes incidence after termination of treatment” value in experiment [1] (by 26 weeks of age, three weeks of daily treatment, same level as PBS-treated mice) was 70%. Moreover, the “mice that developed diabetes during continuous treatment” value in experiment [1] (daily for 14 weeks from 15 weeks of age, up to 29 weeks of age (FIG. 8D)) is given as “none”. In addition, in experiment [1] (daily for three weeks from 15-16 weeks of age, period between 17 and 20 weeks of age (FIG. 8C)), the “mice that developed diabetes during treatment” value is “none”. The “proportion of CD4 T cells with the naïve phenotype (CD45RB^hi CD44^lo) in bone marrow” value in experiment [2] (5 mg/kg daily for 8 days (FIG. 5B)) was “preferentially reduced”. The “proportion of both CD4 and CD8 T cells in the bone marrow” value in experiment [2] (5 mg/kg daily for 8 days, compared to PBS (FIG. 5A)) is on record as “significantly reduced”. Also, the “percentage of HSC in the bone marrow” value in experiment [2] (8 days, compared to PBS-treated NOD mice, p=0.06 (FIG. 10D)) is recorded as “reduced”. Further, the “percentage of T cells that proliferated in the spleen and pancreas-draining lymph nodes” value in experiment [2] (AMD3100 treatment of NOD mice) is “did not significantly affect”. For the same compound, the “distribution of NKT cells, dendritic cells, or B cells” value in experiment [2] (NOD mice following AMD3100 treatment (FIG. 6)) is recorded as “nor any change”. In addition, the “percentages (mean±SE) of CD45RB^hi CD44^lo naïve T cells among TCR+CD4+ cells” value in experiment [2] (bone marrow, prediabetic NOD mice 15-16 weeks of age, daily for 8 days, n=4, p<0.01 vs PBS) was 24.8±3.2%. In addition, the “NKT cell distribution in various organs” value in experiment [2] (prediabetic NOD mice, 8 days (FIG. 6)) is reported as “does not affect”. In addition, the “number of HSCs (Lin-Sca1+c-Kit+) in the bone marrow” value in experiment [2] (treatment for 8 days (FIG. 7C)) is given as “significantly reduced”. In addition, in experiment [2] (setting [7]), the “percentage of Foxp3+CD4+ Treg cells in the bone marrow” value was “increased”, the “percentages of Tregs in the pancreas-draining lymph node (PDLN)” value was “increased significantly” and the “percentages of Tregs in the spleen” value was “increased significantly”. Moreover, in experiment [2] (setting [8]), the “number of Tregs in the spleen” value is “increased significantly” and the “total number of Tregs in the bone marrow” value is recorded as “decreased”. In addition, the “diabetes development in the transfer model” value in experiment [3] is “promotes”. Also, in experiment [4] (prediabetic NOD mice 15 weeks of age), the “lymphocyte infiltration into the islets (insulitis)” value was “significantly reduced”. Moreover, in experiment [4] (prediabetic NOD mice), the peri-insulitis entry was “without affecting”.
With “CXCL12: chemokine (C-X-C motif) ligand 12, administered systemically (Yano et al., 2007)”, the “diabetes on systemic administration” value in experiment [5] (Yano et al., 2007) is “ameliorates”.
As for “G-CSF: granulocyte colony-stimulating factor, a known suppressor of CXCL12 expression”, in experiment [5] (NOD mice, literature), the insulitis and diabetes result is given as “reduced”; the “onset of type I diabetes” value is “significantly delays”.
On to `O=C1c2c(O)cc(O)cc2O[C@H](c2cc(O)c(O)c(O)c2)[C@H]1O` [ampelopsin], for which the “CXCR4 on the surface of human peripheral mononuclear cells (PBMCs)” value in experiment [6] is recorded as “decrease”.
